How the values were obtained:
EP2 receptor = biological target: T1, EP2 receptor (Homo sapiens, UniProt P43116); test: hEP2 cAMP assay (SF295 glioblastoma cells, HTRF cAMP, PGE2 stimulation); assay type: cell-based; conditions: antagonistic activity
T1 construct: SF295 glioblastoma cells express high endogenous EP2 and no EP4; host or cells: SF295 glioblastoma cells
How it was run: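 HTRF cAMP readout gave % cAMP relative to DMSO, fitted to IC50 with duplicate points. Compounds were preincubated 45 min at room temperature with EP2-expressing, EP4-negative SF295 cells in IBMX (2 mM)-containing buffer before a 30 min challenge with PGE2 at 75 nM final, its EC80.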

PTGER2 (EP2) = biological target: T2, PTGER2 (EP2) (Homo sapiens, UniProt P43116); test: hEP2 b-arrestin assay (PathHunter HEK 293 PTGER2 b-arrestin cells); assay type: cell-based; conditions: antagonistic activity, beta-arrestin assay; read-out: hEP2 b-arr IC50
T2 construct: host or cells: HEK 293 (PathHunter PTGER2 b-arrestin cell line)
How it was run: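 Antagonism measured as inhibition of PGE2-driven β-arrestin 2 recruitment (enzyme fragment complementation, luminescence) in engineered HEK293 EP2 cells. Agonist: 5 μM PGE2, ~EC80, 120 min at 37 °C after 15 min compound preincubation; test range 10 μM-2 nM or 1 μM-0.2 nM, duplicates, IC50 fitted.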

T2 sequence (P43116 whole entry): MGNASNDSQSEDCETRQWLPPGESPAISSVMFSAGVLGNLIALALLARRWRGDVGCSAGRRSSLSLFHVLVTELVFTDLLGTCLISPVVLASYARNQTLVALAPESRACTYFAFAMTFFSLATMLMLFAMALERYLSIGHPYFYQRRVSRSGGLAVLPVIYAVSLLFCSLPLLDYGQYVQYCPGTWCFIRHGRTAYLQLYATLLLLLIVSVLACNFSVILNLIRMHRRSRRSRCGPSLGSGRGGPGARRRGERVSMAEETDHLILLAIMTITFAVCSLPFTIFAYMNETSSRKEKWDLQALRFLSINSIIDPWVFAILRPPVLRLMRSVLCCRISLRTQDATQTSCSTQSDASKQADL
T1 sequence (P43116 whole entry): as above

Row | SMILES | IC50 (EP2 receptor) [nM] | IC50 (PTGER2 (EP2)) [nM]
1 | CCOc1cc(-c2cc(NCCc3c(C)sc4c(C)cc(F)cc34)ncn2)ccc1-c1noc(=O)[nH]1 [Example 155, 3-(2-Ethoxy-4-{6-[2-(5-fluoro-2,7-dimethyl-benzo[b]thiophen-3-yl)-ethylamino]-pyrimidin-4-yl}-phenyl)-[1,2,4]oxadiazol-5(4H)-one [tautomeric form: 3-(2-ethoxy-4-(6-((2-(5-fluoro-2,7-dimethylbenzo[b]thiophen-3-yl)ethyl)amino)pyrimidin-4-yl)phenyl)-[1,2,4]oxadiazol-5-ol]] | 87 | 18
2 | CCOc1cc(-c2cc(NCCc3c(C)sc4c(C)c(F)ccc34)ncn2)ccc1CC(=O)O [Example 112, (2-Ethoxy-4-{6-[2-(6-fluoro-2,7-dimethyl-benzo[b]thiophen-3-yl)-ethylamino]-pyrimidin-4-yl}-phenyl)-acetic acid] | 188 | 42
3 | Cc1sc2c(C)cc(F)cc2c1CCNc1cc(-c2ccc(C(=O)O)c(OC3CCCC3)c2)ncn1 [Example 152, 2-Cyclopentyloxy-4-{6-[2-(5-fluoro-2,7-dimethyl-benzo[b]thiophen-3-yl)-ethylamino]-pyrimidin-4-yl}-benzoic acid] | 84 | 27
4 | Cc1sc2c(C)cc(F)cc2c1CCNc1cc(-c2ccc(CC(=O)O)c(CC(C)C)c2)ncn1 [Example 182, (4-{6-[2-(5-Fluoro-2,7-dimethyl-benzo[b]thiophen-3-yl)-ethylamino]-pyrimidin-4-yl}-2-isobutyl-phenyl)-acetic acid] | 617 | 41
5 | O=C(O)c1ccc(-c2cc(NCCc3csc4ccccc34)ncn2)cc1OC1CCC1 [Example 132, 4-[6-(2-Benzo[b]thiophen-3-yl-ethylamino)-pyrimidin-4-yl]-2-cyclobutoxy-benzoic acid] | 167 | 58
6 | CCCOc1cc(-c2cc(NCCc3c(C)sc4c(OC)ccc(Cl)c34)ncn2)ccc1C(=O)O [Example 101, 4-{6-[2-(4-Chloro-7-methoxy-2-methyl-benzo[b]thiophen-3-yl)-ethylamino]-pyrimidin-4-yl}-2-propoxy-benzoic acid] | 85 | 22
7 | CCOc1cc(-c2cc(NCCc3c(C)sc4c(C)cc(F)cc34)ncn2)sc1/C=C/C(=O)O [Example 96, (E)-3-(3-Ethoxy-5-{6-[2-(5-fluoro-2,7-dimethyl-benzo[b]thiophen-3-yl)-ethylamino]-pyrimidin-4-yl}-thiophen-2-yl)-acrylic acid] | 121 | 20
8 | COc1cc(F)c(F)c2c(CCNc3cc(-c4cc(F)c(C(=O)O)c(OC5CCC5)c4)ncn3)c(C)oc12 [Example 150, 2-Cyclobutoxy-4-{6-[2-(4,5-difluoro-7-methoxy-2-methyl-benzofuran-3-yl)-ethylamino]-pyrimidin-4-yl}-6-fluoro-benzoic acid] | 97 | 109
9 | COc1cc(Cl)cc2c(CCNc3cc(-c4cc(F)c(C(=O)O)c(OC5CCC5)c4)ncn3)c(C)oc12 [Example 151, 4-{6-[2-(5-Chloro-7-methoxy-2-methyl-benzofuran-3-yl)-ethylamino]-pyrimidin-4-yl}-2-cyclobutoxy-6-fluoro-benzoic acid] | 95 | 60
10 | COc1cc(-c2cc(NCCc3c(C#N)sc4c(C)cc(F)cc34)ncn2)ccc1CC(=O)O [Example 168, (4-{6-[2-(2-Cyano-5-fluoro-7-methyl-benzo[b]thiophen-3-yl)-ethylamino]-pyrimidin-4-yl}-2-methoxy-phenyl)-acetic acid] | 3030 | 65
11 | CCCc1cc(-c2cc(NCCc3c(C#N)sc4c(C)cc(F)cc34)ncn2)ccc1CC(=O)O [Example 170, (4-{6-[2-(2-Cyano-5-fluoro-7-methyl-benzo[b]thiophen-3-yl)-ethylamino]-pyrimidin-4-yl}-2-propyl-phenyl)-acetic acid] | 116 | 19
12 | CCCc1cc(-c2cc(NCCc3c(C)sc4c(C)cc(F)cc34)ncn2)ccc1CC(=O)O [Example 186, (4-{6-[2-(5-Fluoro-2,7-dimethyl-benzo[b]thiophen-3-yl)-ethylamino]-pyrimidin-4-yl}-2-propyl-phenyl)-acetic acid] | 309 | 22
13 | CCCOc1cc(-c2cc(NCCc3c(C#N)sc4c(C)cc(F)cc34)ncn2)ccc1CC(=O)O [Example 169, (4-{6-[2-(2-Cyano-5-fluoro-7-methyl-benzo[b]thiophen-3-yl)-ethylamino]-pyrimidin-4-yl}-2-propoxy-phenyl)-acetic acid] | 142 | 30
14 | CCOc1cc(-c2cc(NCCc3c(C)sc4c(C)cc(F)cc34)ncn2)ccc1OCCC(=O)O [Example 143, 3-(2-Ethoxy-4-{6-[2-(5-fluoro-2,7-dimethyl-benzo[b]thiophen-3-yl)-ethylamino]-pyrimidin-4-yl}-phenoxy)-propionic acid] | 86 | 52
15 | CCOc1cc(-c2cc(NCCc3c(C)sc4c(C)cccc34)ncn2)ccc1CC(=O)O [Example 109, (4-{6-[2-(2,7-Dimethyl-benzo[b]thiophen-3-yl)-ethylamino]-pyrimidin-4-yl}-2-ethoxy-phenyl)-acetic acid] | 95 | 24

Now those with a lower IC50 (EP2 receptor), led by results:

Row | IC50 (EP2 receptor) [nM] | IC50 (PTGER2 (EP2)) [nM] | SMILES
16 | 4 | 5 | Cc1cc(-c2cc(NCCc3c(C)oc4ccccc34)ncn2)sc1C(=O)O [Example 6, 3-Methyl-5-{6-[2-(2-methyl-benzofuran-3-yl)-ethylamino]-pyrimidin-4-yl}-thiophene-2-carboxylic acid]
17 | 27 | 20 | CCOc1cc(-c2cc(NCCc3c(C)sc4c(C)cc(F)cc34)ncn2)ccc1C(=O)C(=O)O [Example 189, (2-Ethoxy-4-{6-[2-(5-fluoro-2,7-dimethyl-benzo[b]thiophen-3-yl)-ethylamino]-pyrimidin-4-yl}-phenyl)-oxo-acetic acid]
18 | 15 | 6 | Cc1oc2ccccc2c1CCNc1cc(-c2ccc(C(=O)O)c(SC3CCC3)c2)ncn1 [Example 129, 2-Cyclobutylsulfanyl-4-{6-[2-(2-methyl-benzofuran-3-yl)-ethylamino]-pyrimidin-4-yl}-benzoic acid]
19 | 20 | 12 | Cc1sc2c(C)cccc2c1CCNc1cc(-c2ccc(C(=O)O)c(SC3CCC3)c2)ncn1 [Example 130, 2-Cyclobutylsulfanyl-4-{6-[2-(2,7-dimethyl-benzo[b]thiophen-3-yl)-ethylamino]-pyrimidin-4-yl}-benzoic acid]
20 | 59 | 29 | CCOc1cc(-c2cc(NCCc3c(C)oc4c(Cl)cccc34)ncn2)ccc1OCC(=O)O [Example 120, (4-{6-[2-(7-Chloro-2-methyl-benzofuran-3-yl)-ethylamino]-pyrimidin-4-yl}-2-ethoxy-phenoxy)-acetic acid]
21 | 22 | 12 | Cc1sc2c(C)cccc2c1CCNc1cc(-c2ccc(C(=O)O)c(SC3COC3)c2)ncn1 [Example 131, 4-{6-[2-(2,7-Dimethyl-benzo[b]thiophen-3-yl)-ethylamino]-pyrimidin-4-yl}-2-(oxetan-3-ylsulfanyl)-benzoic acid]
22 | 32 | 51 | COc1cccc2c(CCNc3cc(-c4ccc(C(=O)O)c(SC)c4)ncn3)c(C#N)sc12 [Example 13, 4-{6-[2-(2-Cyano-7-methoxy-benzo[b]thiophen-3-yl)-ethylamino]-pyrimidin-4-yl}-2-methylsulfanyl-benzoic acid]
23 | 18 | 8 | CCOc1cc(-c2cc(NCCc3c(C)sc4c(C)cc(F)cc34)ncn2)sc1C(=O)NS(C)(=O)=O [Example 157, N-(3-Ethoxy-5-{6-[2-(5-fluoro-2,7-dimethyl-benzo[b]thiophen-3-yl)-ethylamino]-pyrimidin-4-yl}-thiophene-2-carbonyl)-methanesulfonamide]
24 | 40 | 14 | CCOc1cc(-c2cc(NCCc3c(C)sc4c(C)cccc34)ncn2)ccc1OCC(=O)O [Example 122, (4-{6-[2-(2,7-Dimethyl-benzo[b]thiophen-3-yl)-ethylamino]-pyrimidin-4-yl}-2-ethoxy-phenoxy)-acetic acid]
25 | 37 | 9 | CCOc1cc(-c2cc(NCCc3c(C#N)sc4c(C)cc(F)cc34)ncn2)ccc1OCCC(=O)O [Example 176, 3-(4-{6-[2-(2-Cyano-5-fluoro-7-methyl-benzo[b]thiophen-3-yl)-ethylamino]-pyrimidin-4-yl}-2-ethoxy-phenoxy)-propionic acid]
26 | 20 | 12 | CCCOc1cc(-c2cc(NCCc3c(C)sc4c(C)cc(F)cc34)ncn2)ccc1C(=O)O [Example 100, 4-{6-[2-(5-Fluoro-2,7-dimethyl-benzo[b]thiophen-3-yl)-ethylamino]-pyrimidin-4-yl}-2-propoxy-benzoic acid]
27 | 38 | 12 | CCOc1cc(-c2cc(NCCc3c(C)sc4c(C)cc(F)cc34)ncn2)ccc1-c1nnn[nH]1 [Example 142, {6-[3-Ethoxy-4-(1H-tetrazol-5-yl)-phenyl]-pyrimidin-4-yl}-[2-(5-fluoro-2,7-dimethyl-benzo[b]thiophen-3-yl)-ethyl]-amine]
28 | 50 | 40 | Cc1cc(F)cc2c(CCNc3cc(-c4ccc(C(=O)O)c(OC(C)C)c4)ncn3)c(C#N)sc12 [Example 172, 4-{6-[2-(2-Cyano-5-fluoro-7-methyl-benzo[b]thiophen-3-yl)-ethylamino]-pyrimidin-4-yl}-2-isopropoxy-benzoic acid]

From US11325899B2, “Benzofurane and benzothiophene derivatives as PGE2 receptor modulators” (IDORSIA PHARMACEUTICALS LTD, priority 2017, dated 2022)
